US4892876A, “Method for inhibiting HIV and an pharmaceutical composition therefor” (Nippon Kayaku Kabushiki Kaisha, priority 1987, dated 1990)

How the values were obtained:
[1] = system: HIV (Human Immunodeficiency Virus); assay: Development of virus antigen in HIV-infected MT-4 cells (fluorescent antibody technique); assay type: cell-based
[2] = Toxicity, general statement including repetitive administration; assay type: in vivo
[3] = system: HIV (Human Immunodeficiency Virus); assay: Inhibition of HIV cytopathic effect in MT-4 cells (microscopic observation); assay type: cell-based
Procedure: (§1) About 50,000 cells/ml of MT-4 cell was introduced into a tray having 24 holes. Further, 100 ul of a solution containing a predetermined quantity of oxcetanocin was added, and then it was cultured in a 5% (v/v) carbon dioxide gas incubator at 37° C. for 2 hours. Subsequently, 10^3 to 1.0^4 infective units of HIV were added and cultured for 5 days. Then, the inhibition of cytopathic effect was observed microscopically.

mice = assay: Toxicity after 1 intraperitoneal administration in mice; assay type: in vivo; details: 1 administration of 800 mg/kg
MT-4 cell = assay: Cytotoxic effect on MT-4 cell without virus; assay type: cell-based; details: at concentration of 30 ug/ml
Procedure: as §1, with “microscopically. Cytotoxic effect of oxcetanocin on MT-4 cell was examined without adding virus according to the above technique.” for “microscopically.”

With `Nc1ncnc2c1ncn2C1OC(CO)C1CO` (centres unmarked) [Oxcetanocin, oxcetanocin] the “Development of virus antigens (in words)” value [1] was “very suppressive to development of virus antigens”, the Toxicity [2] was “slightly toxic” and the “Inhibition of cytopathic effect (in words)” value [3] was “predominantly inhibitory to cytopathic effect”. The Toxic sign (mice) was “Any toxic sign has not been observed” and the “Cytotoxicity (in words)” value (MT-4 cell) was “not cytotoxic”.
